From patent publication US20030073721A1, “Peptide beta-strand mimics based on 1,2-dihydro-3(6H)-pyridinone” (THE REGENTS OF THE UNIVERSITY OF CALIFORNIA, a California …, priority 2001, published 2003)
Read-outs that look alike come from different tables or passages of the source.

Biological target: homodimer
Test: Dimer dissociation constant from concentration dependence of NH chemical shifts (NMR)
Type: binding
Text: Dimerization of the Ach-containing peptide analogs of this invention can be detected by observing changes in NH chemical shifts as a function of concentration. For a dimerization process with dissociation constant Kd and NMR chemical shifts δmono and δdi, respectively, the observed chemical shift, δobs, as a function of concentration c is expressed by the following equation: [formula]
Experimental data were obtained for Ac-Phe-Ach-Leu-Ach-Ile, N-methyl amide and for its corresponding sarcosine-containing peptide corresponding to Ac-Phe-Sar-Leu-Sar-Ile, N-methyl amide, as well as for various other Ach-containing peptide analogs of this invention terminating in carboxylic acid groups rather than N-methyl amide groups, all in CDCl3 or CD3OH/CDCl3 at 25° C.
To distinguish between the two species, the dissociation constants of dimers of each species were determined.

## CCC(C)C(NC1=CC(=O)CN(C(=O)C(CC(C)C)NC2=CC(=O)CN(C(=O)C(Cc3ccccc3)NC(C)=O)C2)C1)C(=O)NC (stereo not drawn) [Ac-Phe-Ach-Leu-Ach-Ile-NHMe, Ac-Phe-Ach-Leu-Ach-Ile, N-Methyl Amide]
0% CD3OH/CDCl3 (pure CDCl3), 25° C., read-out: Dissociation constant Kd (dimer)
  Kd: 400 µM

## Phe-Gly-Ser-D-Pro-Ala-Leu-Ach-Ile [hybrid 1]
5% CD3OH/CDCl3, concentration range 0.6-42 mM, read-out: Dimer dissociation constant
  Kd: 25000 µM

## Ac-Leu-Ach-Val-Ach-Leu-Ach-Phe-OH [Ach-containing peptide analog (heptamer) terminating in carboxylic acid group]
15% CD3OH/CDCl3, 25° C., read-out: Dissociation constant Kd (dimer)
  Kd: 1500 µM

## Ac-Phe-Ach-Leu-Ach-Val-OH [Ach-containing peptide analog terminating in carboxylic acid group]
2.5% CD3OH/CDCl3, 25° C., read-out: Dissociation constant Kd (dimer)
  Kd: 90 µM
5% CD3OH/CDCl3, 25° C., read-out: Dissociation constant Kd (dimer)
  Kd: 8000 µM
Pure chloroform, extrapolated from Kd vs CD3OH concentration, read-out: Dissociation constant in pure chloroform, extrapolation of the line in FIG. 1
  Kd: ~0.13 µM
